pIC50: −log10 of the molar value. Read-outs that look alike come from different tables or passages of the source.
System: GM01896 cells (MPS II dermal fibroblasts)
Test: Assay 1: MPS cellular assay, MPS II (heparan sulfate disaccharide biomarkers by LC-MS)
Assay type: cell-based, human
Details: Assay 1 for MPS II, heparan sulfate disaccharide biomarkers (I2a4, I2a6, I2S0 and/or I2S6), read-out: IC50 Range
Method in brief: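 MPS II patient dermal fibroblasts (GM01896) treated with compound at ≤30 μM for 4 to 21 days. Heparan sulfate GAGs isolated by anion exchange, digested with heparinases I-III, aniline-tagged against [13C6]aniline standards and quantified by LC-MS; IC50 from curve fitting. Viability monitored by alamar blue or ATP.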

Compound | pIC50 (Homo sapiens, Fibroblast) | pIC50
CNC(=O)c1ccc(Nc2cc(-c3ccc4c(cnn4CCN4CCOCC4)c3)nc(N3CCOCC3)n2)cc1 [N-methyl[4-({2-morpholin-4-yl-6-[1-(2-morpholin-4-ylethyl)(1H-indazol-5-yl)]pyrimidin-4-yl}amino)phenyl]carboxamide] | 6.00 to 6.30 | –
Cc1nc(-c2ccc(Nc3cc(-c4ccc5cnn(C)c5c4)nc(N4CCOCC4)n3)cc2)no1 [[4-(5-methyl(1,2,4-oxadiazol-3-yl))phenyl][6-(1-methyl(1H-indazol-6-yl))-2-morpholin-4-ylpyrimidin-4-yl]amine] | 5.30 to 6.00 | –
CNC(=O)c1ccc(Nc2cc(-c3ccc4ncn(CCN5CCOCC5)c4c3)nc(N3CCOCC3)n2)cc1 [N-methyl[4-({2-morpholin-4-yl-6-[1-(2-morpholin-4-ylethyl)benzimidazol-6-yl]pyrimidin-4-yl}amino)phenyl]carboxamide] | 6.00 to 6.30 | –
Cc1c2ccc(-c3cc(Nc4ccc(Cl)cc4)nc(N4CCOCC4)n3)cc2nn1CCN(C)C [[2-(6-{6-[(4-chlorophenyl)amino]-2-morpholin-4-ylpyrimidin-4-yl}-3-methyl(2H-indazol-2-yl))ethyl]dimethylamine] | 5.30 to 6.00 | –
COCCn1cnc2ccc(-c3cc(Nc4ccc(Cl)cc4)nc(N4CCOCC4)n3)cc21 [(4-chlorophenyl){6-[1-(2-methoxyethyl)benzimidazol-6-yl]-2-morpholin-4-ylpyrimidin-4-yl}amine] | 6.00 to 6.30 | –
CNC(=O)c1ccc(Nc2cc(-c3ccc4c(c3)ncn4C)nc(N3CCOCC3)n2)cn1 [N-methyl(5-{[6-(1-methylbenzimidazol-5-yl)-2-morpholin-4-ylpyrimidin-4-yl]amino}(2-pyridyl))carboxamide] | 6.00 to 6.30 | –
COCCc1nc2ccc(-c3cc(Nc4ccc(Cl)cc4)nc(N4CCOCC4)n3)cc2n1C [(4-chlorophenyl){6-[2-(2-methoxyethyl)-1-methylbenzimidazol-6-yl]-2-morpholin-4-ylpyrimidin-4-yl}amine] | 6.00 to 6.30 | –
CCn1ccc2ccc(Nc3cc(-c4ccc5cnn(C)c5c4)nc(N4CCOCC4)n3)cc21 [(1-ethylindol-6-yl)[6-(1-methyl(1H-indazol-6-yl))-2-morpholin-4-ylpyrimidin-4-yl]amine] | 5.30 to 6.00 | –
Cn1ccc2cc(Nc3cc(-c4ccc5cnn(C)c5c4)nc(N4CCOCC4)n3)ccc21 [[6-(1-methyl(1H-indazol-6-yl))-2-morpholin-4-ylpyrimidin-4-yl](1-methylindol-5-yl)amine] | 5.30 to 6.00 | –
CN(C)CCNc1nn(C)c2cc(-c3cc(Nc4ccc(Cl)cc4)nc(N4CCOCC4)n3)ccc12 [{2-[(6-{6-[(4-chlorophenyl)amino]-2-morpholin-4-ylpyrimidin-4-yl}-1-methyl(1H-indazol-3-yl))amino]ethyl}dimethylamine] | 6.00 to 6.30 | –
CN(C)CCn1cnc2ccc(-c3cc(Nc4ccc(Cl)cc4)nc(N4CCOCC4)n3)cc21 [[2-(6-{6-[(4-chlorophenyl)amino]-2-morpholin-4-ylpyrimidin-4-yl}benzimidazolyl)ethyl]dimethylamine] | – | 6.00 to 6.30
CN1CCN(Cc2nn(C)c3cc(-c4cc(Nc5ccc(Cl)cc5)nc(N5CCOCC5)n4)ccc23)CC1 [(4-chlorophenyl)(6-{1-methyl-3-[(4-methylpiperazinyl)methyl](1H-indazol-6-yl)}-2-morpholin-4-ylpyrimidin-4-yl)amine] | 6.00 to 6.30 | –
Cn1ncc2ccc(-c3cc(Nc4ccc([S+](C)[O-])cc4)nc(N4CCOCC4)n3)cc21 (centres unmarked) [1-{[6-(1-methyl(1H-indazol-6-yl))-2-morpholin-4-ylpyrimidin-4-yl]amino}-4-(methylsulfinyl)benzene] | 5.30 to 6.00 | –
CNC(=O)c1ccc(Nc2cc(-c3ccc4cnn(CC5CC5)c4c3)nc(N3CCOCC3)n2)cc1 [[4-({6-[1-(cyclopropylmethyl)(1H-indazol-6-yl)]-2-morpholin-4-ylpyrimidin-4-yl}amino)phenyl]-N-methylcarboxamide] | > 6.30 | –
Cc1nn(C)c2cc(-c3cc(Nc4ccc(-c5nnc(C(C)C)[nH]5)cc4)nc(N4CCOCC4)n3)ccc12 [[6-(1,3-dimethyl(1H-indazol-6-yl))-2-morpholin-4-ylpyrimidin-4-yl]{4-[5-(methylethyl)(4H-1,2,4-triazol-3-yl)]phenyl}amine] | > 6.30 | –
CNC(=O)c1ccc(Nc2cc(-c3ccc4c(cnn4C)c3)nc(N3CCOCC3)n2)cn1 [N-methyl(5-{[6-(1-methyl(1H-indazol-5-yl))-2-morpholin-4-ylpyrimidin-4-yl]amino}(2-pyridyl))carboxamide] | 6.00 to 6.30 | –
Cc1nc2cc(-c3cc(Nc4ccc(Cl)cc4)nc(N4CCOCC4)n3)ccc2n1CCN1CCCC1 [(4-chlorophenyl){6-[2-methyl-1-(2-pyrrolidinylethyl)benzimidazol-5-yl]-2-morpholin-4-ylpyrimidin-4-yl}amine] | 6.00 to 6.30 | –
Clc1ccc(Nc2cc(-c3ccc4ncn(CCN5CCOCC5)c4c3)nc(N3CCOCC3)n2)cc1 [(4-chlorophenyl){2-morpholin-4-yl-6-[1-(2-morpholin-4-ylethyl)benzimidazol-6-yl]pyrimidin-4-yl}amine] | > 6.30 | –

Compound | pIC50 (Homo sapiens, Fibroblast) | pIC50
Cn1ncc2ccc(-c3cc(Nc4ccc(C5=NCCO5)cc4)nc(N4CCOCC4)n3)cc21 [[6-(1-methyl(1H-indazol-6-yl))-2-morpholin-4-ylpyrimidin-4-yl](4-(1,3-oxazolin-2-yl)phenyl)amine] | 5.30 to 6.00 | –
Cc1nn(C)c2cc(-c3cc(Nc4ccc(-c5cocn5)cc4)nc(N4CCOCC4)n3)ccc12 [[6-(1,3-dimethyl(1H-indazol-6-yl))-2-morpholin-4-ylpyrimidin-4-yl](4-(1,3-oxazol-4-yl)phenyl)amine] | > 6.30 | –
Cc1nn(C)c2cc(-c3cc(Nc4ccc(-c5ccn[nH]5)cc4)nc(N4CCOCC4)n3)ccc12 [[6-(1,3-dimethyl(1H-indazol-6-yl))-2-morpholin-4-ylpyrimidin-4-yl](4-pyrazol-5-ylphenyl)amine] | > 6.30 | –
Cn1nc(CCN2CCOCC2)c2ccc(-c3cc(Nc4ccc(-c5nnc(C6CC6)[nH]5)cc4)nc(N4CCOCC4)n3)cc21 [[4-(5-cyclopropyl(4H-1,2,4-triazol-3-yl))phenyl]{6-[1-methyl-3-(2-morpholin-4-ylethyl)(1H-indazol-6-yl)]-2-morpholin-4-ylpyrimidin-4-yl}amine] | > 6.30 | –
CNC(=O)c1ccc(Nc2cc(-c3ccc4cn(CC5CC5)nc4c3)nc(N3CCOCC3)n2)cn1 [[5-({6-[2-(cyclopropylmethyl)(2H-indazol-6-yl)]-2-morpholin-4-ylpyrimidin-4-yl}amino)(2-pyridyl)]-N-methylcarboxamide] | 5.30 to 6.00 | –
Clc1ccc(Nc2cc(-c3ccc4cn(CC5CC5)nc4c3)nc(N3CCOCC3)n2)cc1 [(4-chlorophenyl){6-[2-(cyclopropylmethyl)(2H-indazol-6-yl)]-2-morpholin-4-ylpyrimidin-4-yl}amine] | 5.30 to 6.00 | –
Cc1nn(C)c2cc(-c3cc(Nc4ccc(-c5ncno5)cc4)nc(N4CCOCC4)n3)ccc12 [[6-(1,3-dimethyl(1H-indazol-6-yl))-2-morpholin-4-ylpyrimidin-4-yl](4-(1,2,4-oxadiazol-5-yl)phenyl)amine] | 5.30 to 6.00 | –
CN(C)CCc1nc2cc(Cc3cc(Nc4ccc(Cl)cc4)nc(N4CCOCC4)n3)ccc2[nH]1 [[2-(6-{6-[(4-chlorophenyl)amino]-2-morpholin-4-ylpyrimidin-4-yl}methylbenzimidazol-2-yl)ethyl]dimethylamine] | > 6.30 | –
Clc1ccc(Nc2cc(-c3ccc4ncn(CCN5CCCC5)c4c3)nc(N3CCOCC3)n2)cc1 [(4-chlorophenyl){2-morpholin-4-yl-6-[1-(2-pyrrolidinylethyl)benzimidazol-6-yl]pyrimidin-4-yl}amine] | 6.00 to 6.30 | –
Cn1nc(CCN2CCOCC2)c2ccc(-c3nc(N4CCOCC4)nc(Nc4ccc(Cl)cc4)c3F)cc21 [(4-chlorophenyl){5-fluoro-6-[1-methyl-3-(2-morpholin-4-ylethyl)(1H-indazol-6-yl)]-2-morpholin-4-ylpyrimidin-4-yl}amine] | 5.30 to 6.00 | –
CNC(=O)c1ccc(Nc2cc(-c3ccc4cnn(C)c4c3)nc(N3CCOCC3)n2)cc1 [N-methyl(4-{[6-(1-methyl(1H-indazol-6-yl))-2-morpholin-4-ylpyrimidin-4-yl]amino}phenyl)carboxamide] | > 6.30 | –
Clc1ccc(Nc2cc(-c3ccc4c(c3)ncn4CCN3CCOCC3)nc(N3CCOCC3)n2)cc1 [(4-chlorophenyl){2-morpholin-4-yl-6-[1-(2-morpholin-4-ylethyl)benzimidazol-5-yl]pyrimidin-4-yl}amine] | 6.00 to 6.30 | –
Cn1ccnc1-c1ccc(Nc2cc(-c3ccc4cnn(C)c4c3)nc(N3CCOCC3)n2)cc1 [[6-(1-methyl(1H-indazol-6-yl))-2-morpholin-4-ylpyrimidin-4-yl][4-(1-methylimidazol-2-yl)phenyl]amine] | 6.00 to 6.30 | –
CNC(=O)c1ccc(Nc2cc(-c3ccc4nn(CC5CC5)cc4c3)nc(N3CCOCC3)n2)cn1 [[5-({6-[2-(cyclopropylmethyl)(2H-indazol-5-yl)]-2-morpholin-4-ylpyrimidin-4-yl}amino)(2-pyridyl)]-N-methylcarboxamide] | 5.30 to 6.00 | –
Cn1ccc2ccc(Nc3cc(-c4ccc5c(CCN6CCOCC6)nn(C)c5c4)nc(N4CCOCC4)n3)cc21 [(1-methylindol-6-yl){6-[1-methyl-3-(2-morpholin-4-ylethyl)(1H-indazol-6-yl)]-2-morpholin-4-ylpyrimidin-4-yl}amine] | > 6.30 | –
CN1NC=C2CC=C(c3cc(Nc4ccc(C(N)=O)cc4)nc(N4CCOCC4)n3)C=C21 [4-((6-(1-methyl-4H-indazol-6-yl)-2-morpholinopyrimidin-4-yl)amino)benzamide] | 6.00 to 6.30 | –
Cc1nn(C)c2cc(-c3cc(Nc4ccc(-c5nnc[nH]5)cc4)nc(N4CCOCC4)n3)ccc12 [(4-(4H-1,2,4-triazol-3-yl)phenyl)[6-(1,3-dimethyl(1H-indazol-6-yl))-2-morpholin-4-ylpyrimidin-4-yl]amine] | > 6.30 | –
